The results in this text go back to EP4722206A1, “BENZO(HETERO)CYCLOALKYL COMPOUNDS FOR ANDROGEN RECEPTOR-DEPENDENT DISEASES” (Haihe Biopharma Co., Ltd., priority 2023, dated 2024).

The target in one assay is T1, Androgen receptor (AR) (Homo sapiens, UniProt P10275).
T1 construct: expressed in transfected cells; host or cells: AR+ARE/Luc HEK293T cells
T1 sequence (P10275 1-920): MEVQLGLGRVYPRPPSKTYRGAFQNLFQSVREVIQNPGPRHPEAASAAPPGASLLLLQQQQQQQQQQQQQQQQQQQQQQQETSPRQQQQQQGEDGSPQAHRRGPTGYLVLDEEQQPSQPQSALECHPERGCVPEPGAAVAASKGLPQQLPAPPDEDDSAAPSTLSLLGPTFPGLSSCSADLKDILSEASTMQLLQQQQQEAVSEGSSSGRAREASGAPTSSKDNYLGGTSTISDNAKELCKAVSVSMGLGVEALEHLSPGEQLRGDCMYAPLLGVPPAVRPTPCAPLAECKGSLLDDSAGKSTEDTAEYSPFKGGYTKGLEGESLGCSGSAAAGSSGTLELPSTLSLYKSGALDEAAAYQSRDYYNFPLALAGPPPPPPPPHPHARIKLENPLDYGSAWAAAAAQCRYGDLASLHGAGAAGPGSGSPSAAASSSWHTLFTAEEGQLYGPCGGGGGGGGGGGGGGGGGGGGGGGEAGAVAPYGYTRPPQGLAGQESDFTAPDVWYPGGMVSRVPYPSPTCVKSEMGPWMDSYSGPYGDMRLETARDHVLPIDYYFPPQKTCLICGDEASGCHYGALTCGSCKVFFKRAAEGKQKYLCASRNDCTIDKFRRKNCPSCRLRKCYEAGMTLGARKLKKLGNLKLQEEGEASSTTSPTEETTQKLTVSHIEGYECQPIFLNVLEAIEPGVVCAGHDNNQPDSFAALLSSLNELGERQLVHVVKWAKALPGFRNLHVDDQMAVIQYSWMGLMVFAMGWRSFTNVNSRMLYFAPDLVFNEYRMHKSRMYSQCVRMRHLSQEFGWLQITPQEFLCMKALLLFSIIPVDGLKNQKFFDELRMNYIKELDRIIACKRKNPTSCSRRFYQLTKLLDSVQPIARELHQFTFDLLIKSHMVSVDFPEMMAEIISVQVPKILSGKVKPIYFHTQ
Description: Androgen receptor (AR) reporter gene assay (ARE Luc). The assay is classed as cell-based. The settings on record: AR+ARE/Luc HEK293T cells, with 11-KDHT, 24h incubation, Bright-Lite luminescence. How it is done:
Experimental Methods: 1. The described compounds were dissolved in 100% DMSO at a final concentration of 10 mM. 100 nL each of 400X compound to be tested and 400X 11-KDHT (40 nM) represtively were added to a 384-well assay plate with Echo, followed by 20 µL of complete medium, and centrifuged at 1000 rpm for 1 min, and oscillated for 20-30 min at room temperature. 2. 20 µL of AR+ARE/Luc HEK293T cells (10,000 cells/well) were inoculated into the assay plate containing the compounds and 11-KDHT, and centrifuged at 1000 rpm for 1 min. The assay plate was incubated in a 37 °C CO2 incubator for 24h. 3. 40 µL of Bright-Lite assay reagent was transferred to each well of the assay plate, centrifuged at 1000 rpm for 1 min, and shaken for 2 min at room temperature protected from light. 4. Luminescence values (RLU) were measured using Envision. […] Table 1. AR inhibition of Representative Compounds
Background: In a reporter assay the amount or activity of a reporter protein is the signal.

Another assay addresses T2, AR-V7 (Homo sapiens, UniProt P10275).
T2 construct: fusing HiBiT tag (PromegaTM) into the C-terminus of the AR-V7 genome of 22RV1 cells; host or cells: 22RV1 cells, CRISPR/Cas9 knock-in of HiBiT at the AR-V7 C-terminus
T2 sequence (P10275 1-644 isoform P10275-3): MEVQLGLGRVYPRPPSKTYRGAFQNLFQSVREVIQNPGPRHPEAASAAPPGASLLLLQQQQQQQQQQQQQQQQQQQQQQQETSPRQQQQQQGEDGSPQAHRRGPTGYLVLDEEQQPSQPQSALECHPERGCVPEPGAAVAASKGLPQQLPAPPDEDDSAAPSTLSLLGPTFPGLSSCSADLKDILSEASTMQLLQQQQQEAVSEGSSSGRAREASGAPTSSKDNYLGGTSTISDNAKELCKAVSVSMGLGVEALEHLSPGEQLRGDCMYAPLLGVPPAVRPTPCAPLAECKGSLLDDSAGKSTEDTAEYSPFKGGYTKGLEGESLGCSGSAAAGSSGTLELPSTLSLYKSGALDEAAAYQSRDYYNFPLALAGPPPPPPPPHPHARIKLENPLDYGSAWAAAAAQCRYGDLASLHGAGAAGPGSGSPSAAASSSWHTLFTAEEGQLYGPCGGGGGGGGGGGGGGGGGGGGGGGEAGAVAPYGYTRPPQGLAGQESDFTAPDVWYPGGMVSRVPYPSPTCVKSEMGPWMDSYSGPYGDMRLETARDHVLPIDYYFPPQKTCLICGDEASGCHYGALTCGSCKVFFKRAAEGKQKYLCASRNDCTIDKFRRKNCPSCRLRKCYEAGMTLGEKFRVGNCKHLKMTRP
Description: AR degradation experiment (AR-V7-HiBiT, Nano-Glo HiBiT Lytic Detection). The settings on record: 22RV1 cells stably expressing AR-V7-HiBiT, 24 hr at 37 °C; concentration required for degradation 50% of the target protein. The assay is classed as cell-based. As to the method: In this experiment, cells stably expressing AR-V7-HiBiT was constructed by fusing HiBiT tag (PromegaTM) into the C-terminus of the AR-V7 genome of 22RV1 cells (ATCC) using CRISPR/Cas9 technology. The concentration of test compounds started from 1000 nM, and diluted with DMSO by 3-fold gradient for 11 points. […]
(In general: HiBiT is a short tag that completes a luciferase, so light tracks the accessible tagged protein.)

As usually defined, the IC50 is the concentration needed to halve the response being measured. Lower therefore signals greater potency in that assay. In turn, `CCOc1c(C#N)cc2c(c1Cl)CCCC2Nc1ccc(OCCCNc2ccc3c(c2)C(=O)N(C2CCC(=O)NC2=O)C3=O)nc1` (stereo not shown) [HANT-312, 4-chloro-8-(6-(3-((2-(2,6-dioxopiperidin-3-yl)-1,3-dioxoisoindolin-5-yl)amino)propoxy)pyridin-3-ylamino)-3-ethoxy-5,6,7,8-tetrahydronaphthalene-2-carbonitrile] gave an IC50 against Androgen receptor (AR) of 377 nM. The same measure, in the same setting: the value for `N#Cc1cc2c(c(Cl)c1OCCCl)CCCC2c1cnc(NCCCNc2ccc3c(c2)C(=O)N(C2CCC(=O)NC2=O)C3=O)nc1` (stereo not shown) [HANT-314] was 490 nM. Usually DC50 stands for the midpoint of the concentration-degradation curve. In turn, `N#Cc1cc2c(c(Cl)c1OCCCl)CCCC2c1cnc(NCCOCCOc2ccc3c(c2)C(=O)N(C2CCC(=O)NC2=O)C3=O)nc1` (stereo not shown) [HANT-315, 4-chloro-3-(2-chloroethoxy)-8-(2-(2-(2-(2,6-dioxopiperidin-3-yl)-1,3-dioxoisoindolin-5-yl)oxy)ethoxy-amino)pyrimidin-5-yl-5,6,7,8-tetrahydronaphthalene-2-carbonitrile] had a DC50 at AR-V7 of 8.7 nM. In addition, inhibition against Androgen receptor (AR) was half-maximal at 30 nM (IC50).

As for `N#Cc1cc2c(c(Cl)c1OCCCl)CCC[C@H]2c1cnc(NCCOCCOc2ccc3c(c2)C(=O)N(C2CCC(=O)NC2=O)C3=O)nc1` (stereo partly shown) [HANT-315-P1], half-maximal degradation on AR-V7 (DC50) was put at 4.3 nM. This compound registered a half-inhibitory concentration (IC50) against Androgen receptor (AR) of 2 nM. As for `N#Cc1cc2c(c(Cl)c1OCCCl)CCC[C@@H]2c1cnc(NCCOCCOc2ccc3c(c2)C(=O)N(C2CCC(=O)NC2=O)C3=O)nc1` (stereo partly shown) [HANT-315-P2], the IC50 at Androgen receptor (AR) came out at 3870 nM. In other words, the single-digit micromolar range.

At Androgen receptor (AR), `N#Cc1cc2c(c(Cl)c1OCCCl)CCCC2Nc1ccc(OCOCNc2ccc3c(c2)C(=O)N(C2CCC(=O)NC2=O)C3=O)nc1` (stereo not shown) [HANT-328] displayed an IC50 of 1830 nM. The same measure, in the same setting: the value for `N#Cc1cc2c(c(Cl)c1OCCCl)CCCC2Nc1ccc(OCNc2ccc3c(c2)C(=O)N(C2CCC(=O)NC2=O)C3=O)nc1` (stereo not shown) [HANT-329] was 123 nM. With `N#Cc1cc2c(c(Cl)c1OCCCl)CCCC2Nc1ccc(OCCCCNc2ccc3c(c2)C(=O)N(C2CCC(=O)NC2=O)C3=O)nc1` (stereo not shown) [HANT-331, 4-chloro-3-(2-chloroethoxy)-8-((6-(4-(2-(2,6-dioxopiperidin-3-yl)-1,3-dioxoisoindolin-5-yl)amino)butoxy)pyridin-3-amino)-5,6,7,8-tetrahydronaphthalene-2-carbonitrile], the DC50 at AR-V7 is over 10000 nM. In addition, the concentration for half-maximal inhibition (IC50) at Androgen receptor (AR) amounted to 822 nM. On AR-V7, `N#Cc1cc2c(c(Cl)c1OCCCl)CCCC2c1ccc(OCCCCOc2ccc3c(c2)C(=O)N(C2CCC(=O)NC2=O)C3=O)nc1` (stereo not shown) [HANT-338] had a DC50 of over 10000 nM. For the same compound, the half-maximal inhibitory concentration (IC50) against Androgen receptor (AR) came to 657 nM.

Consider `N#Cc1cc2c(c(Cl)c1OCCCl)CCCC2c1ccc(OCCCNc2ccc3c(c2)C(=O)N(C2CCC(=O)NC2=O)C3=O)nc1` (stereo not shown) [HANT-339], for which the IC50 against Androgen receptor (AR) worked out at 569 nM. In turn, `N#Cc1cc2c(c(Cl)c1OCCCl)CCCC2c1cnc(N2CCC(OCCOc3ccc4c(c3)C(=O)N(C3CCC(=O)NC3=O)C4=O)CC2)nc1` (stereo not shown) [HANT-342] gave a DC50 at AR-V7 of 40 nM. In addition, on Androgen receptor (AR), the IC50 is 27 nM. For `N#Cc1cc2c(c(Cl)c1OCCCl)CCCC2c1ccc(NCCOCCOc2ccc3c(c2)C(=O)N(C2CCC(=O)NC2=O)C3=O)nc1` (stereo not shown) [HANT-346], in that order: 24 nM and 29 nM. For `CCOc1c(C#N)cc2c(c1Cl)CCCC2c1cnc(NCCOCCOc2ccc3c(c2)C(=O)N(C2CCC(=O)NC2=O)C3=O)nc1` (stereo not shown) [HANT-354], in that order: 13 nM and 21 nM. In turn, `N#Cc1cc2c(c(Cl)c1OCCCl)CCCC2Nc1ccc(OCOCNc2cccc3c2C(=O)N(C2CCC(=O)NC2=O)C3=O)nc1` (stereo not shown) [HANT-362] gave an IC50 against Androgen receptor (AR) of 913 nM. In other words, the sub-micromolar range. The compound `N#Cc1cc2c(c(Cl)c1OCCCl)CCCC2c1cnc(N2CCC(OCCCOc3ccc4c(c3)C(=O)N(C3CCC(=O)NC3=O)C4=O)CC2)nc1` (stereo not shown) [HANT-371, 4-chloro-3-(2-chloroethoxy)-8-(2-(4-(3-((2-(2,6-dioxopiperidin-3-yl)-1,3-dioxoisoindol-5-yl)oxy)propoxy)piperidin-1-yl)pyrimidin-5-yl)-5,6,7,8-tetrahydronaphthalene-2-carbonitrile] displayed a DC50 on AR-V7 of 284 nM. In addition, the IC50 against Androgen receptor (AR) was 292 nM. `N#Cc1cc2c(c(Cl)c1OCCCl)CCCC2c1cnc(N2CCC(OC3CN(c4ccc5c(c4)C(=O)N(C4CCC(=O)NC4=O)C5=O)C3)CC2)nc1` (stereo not shown) [HANT-390] gave a 50% inhibitory concentration (IC50) at Androgen receptor (AR) of 476 nM. This counts as sub-micromolar. Turning to `N#Cc1cc2c(c(Cl)c1OCCCl)CCCC2c1cnc(N2CCC(OCCNc3ccc4c(c3)C(=O)N(C3CCC(=O)NC3=O)C4=O)C2)nc1` (stereo not shown) [HANT-393], half-maximal inhibition against Androgen receptor (AR) (IC50) required 428 nM. The same measure, in the same setting: the figure for `CCOc1c(C#N)cc2c(c1Cl)CCCC2c1cnc(NCCOC2CN(c3ccc4c(c3)C(=O)N(C3CCC(=O)NC3=O)C4=O)C2)nc1` (stereo not shown) [HANT-431, 4-chloro-8-(2-((2-(2-(1-(2-(2,6-dioxopiperidin-3-yl)-1,3-dioxoisoindol-5-yl)azetidin-3-yl)oxy)ethyl)amino)pyrimidin-5-yl)-3-ethoxy-5,6,7,8-tetrahydronaphthalene-2-carbonitrile] is 744 nM; for `N#Cc1cc2c(c(Cl)c1OCCCl)CCCC2c1ccc(N2CCC(OCCCOc3ccc4c(c3)C(=O)N(C3CCC(=O)NC3=O)C4=O)CC2)nc1` (stereo not shown) [HANT-512] it is 318 nM. As for `N#Cc1cc2c(c(Cl)c1OCCCl)CCCC2c1ccc(N2CC(OCCOc3ccc4c(c3)C(=O)N(C3CCC(=O)NC3=O)C4=O)C2)nc1` (stereo not shown) [HANT-513], the midpoint of inhibition against Androgen receptor (AR), the IC50, lay at 7.6 nM. Against the preceding compound, the IC50 is about 42-fold lower.

Regarding `N#Cc1cc2c(c(Cl)c1OCCCl)CCCC2c1ccc(N2CCC(OCCOc3ccc4c(c3)C(=O)N(C3CCC(=O)NC3=O)C4=O)CC2)nc1` (stereo not shown) [HANT-514], the half-maximal inhibitory concentration (IC50) against Androgen receptor (AR) came out at 73 nM.

At Androgen receptor (AR), `N#Cc1cc2c(c(Cl)c1OCCCl)CCCC2c1cnc2c(cnn2CCOCCOc2ccc3c(c2)C(=O)N(C2CCC(=O)NC2=O)C3=O)c1` (stereo not shown) [HANT-515] showed a half-maximal inhibitory concentration (IC50) of 754 nM.

The compound `N#Cc1cc(C2CCCc3c2cc(C#N)c(OCCCl)c3Cl)cnc1N1CC(OCCOc2ccc3c(c2)C(=O)N(C2CCC(=O)NC2=O)C3=O)C1` (stereo not shown) [HANT-516] showed a concentration for half-maximal inhibition (IC50) on Androgen receptor (AR) of 32 nM. Same read-out and setting: the value for `N#Cc1cc2c(c(Cl)c1OCCCl)CCCC2c1ccc(OC2CCC(Oc3ccc4c(c3)C(=O)N(C3CCC(=O)NC3=O)C4=O)CC2)nc1` (stereo not shown) [HANT-517] was 575 nM. On the same count and under the same terms, the figure for `N#Cc1cc2c(c(Cl)c1OCCCl)CCCC2c1ccc(OC2CCC(OCCOc3ccc4c(c3)C(=O)N(C3CCC(=O)NC3=O)C4=O)CC2)nc1` (stereo not shown) [HANT-518] is 209 nM; for `N#Cc1cc2c(c(Cl)c1OCCCl)CCCC2c1cnc(N2CC(OCCOc3ccc4c(c3)C(=O)N(C3CCC(=O)NC3=O)C4=O)C2)nc1` (stereo not shown) [HANT-519] it is 23 nM.
